Results reported in PubChem BioAssay AID330 (DTP/NCI, 2004).
Several values for one entry are separate records, joined by “and”; a condition that tells them apart may be missing. Identical values can stand only once. Inconclusive results and toxic doses are left out.

Test system: P388 leukemia ip, CD2F1 mice, survival T/C
Test: NCI In Vivo Anticancer Drug Screen. Data for tumor model P388 Leukemia (intraperitoneal) in CD2F1 (CDF1) mice
Conditions: endpoint: median survival time, higher = longer survival
Method in brief: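 Mice carrying the transplanted tumor received test compound or vehicle. Survival was recorded in each group, and the value is the treated-group measurement divided by that of the vehicle-treated control group.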

[1] = dose: 100.0 mg/kg/injection, schedule: Q01DX009 (ip), vehicle: Klucel (hydroxypropylcellulose) (HPC)
[2] = dose: 200.0 mg/kg/injection, schedule: Q01DX009 (ip), vehicle: Klucel (hydroxypropylcellulose) (HPC)
[3] = dose: 50.0 mg/kg/injection, schedule: Q01DX005 (ip), vehicle: Klucel (hydroxypropylcellulose) (HPC)
[4] = dose: 100.0 mg/kg/injection, schedule: Q01DX005 (ip), vehicle: Klucel (hydroxypropylcellulose) (HPC)
[5] = dose: 200.0 mg/kg/injection, schedule: Q01DX005 (ip), vehicle: Klucel (hydroxypropylcellulose) (HPC)

With `CC1=CC(=O)C(O)C2(C)C1CC1OC(=O)C(OC(=O)CC(C)(C)O)C3C(C)C(O)C4(O)OCC13C42` (stereo unspecified) the T/C (dose: 0.5 mg/kg/injection, schedule: Q01DX009 (ip), vehicle: saline + alcohol) was 115 % of control, the T/C (dose: 1.0 mg/kg/injection, schedule: Q01DX009 (ip), vehicle: saline + alcohol) was 118 % of control and the T/C (dose: 2.0 mg/kg/injection, schedule: Q01DX009 (ip), vehicle: saline + alcohol) was 119 % of control. For the same compound, the T/C (dose: 8.0 mg/kg/injection, schedule: Q01DX009 (ip), vehicle: saline + alcohol) was 118 % of control.

With `O=C(O)c1c2c(nc3ccccc13)Cc1ccccc1-2` the T/C (dose: 6.25 mg/kg/injection, schedule: Q01DX009 (ip), vehicle: Klucel (hydroxypropylcellulose) (HPC)) was 97 % of control, the T/C (dose: 6.25 mg/kg/injection, schedule: Q01DX009 (ip), vehicle: water) was 101 % of control and the T/C (dose: 12.5 mg/kg/injection, schedule: Q01DX009 (ip), vehicle: Klucel (hydroxypropylcellulose) (HPC)) was 98 % of control. For the same compound, the T/C (dose: 12.5 mg/kg/injection, schedule: Q01DX009 (ip), vehicle: water) was 99 % of control and 109 % of control, the T/C (dose: 25.0 mg/kg/injection, schedule: Q01DX009 (ip), vehicle: Klucel (hydroxypropylcellulose) (HPC)) was 106 % of control and the T/C (dose: 25.0 mg/kg/injection, schedule: Q01DX009 (ip), vehicle: water) was 104 % of control and 110 % of control and 114 % of control. For the same compound, the T/C (dose: 50.0 mg/kg/injection, schedule: Q01DX009 (ip), vehicle: saline with Tween-80) was 110 % of control, the T/C (dose: 50.0 mg/kg/injection, schedule: Q01DX009 (ip), vehicle: water) was 115 % of control and 121 % of control and the T/C [1] was 160 % of control and 169 % of control. The T/C (dose: 100.0 mg/kg/injection, schedule: Q01DX009 (ip), vehicle: water) was 166 % of control and 172 % of control, the T/C [2] was 172 % of control and 179 % of control and the T/C (dose: 200.0 mg/kg/injection, schedule: Q01DX009 (ip), vehicle: saline with Tween-80) was 181 % of control. For the same compound, the T/C (dose: 200.0 mg/kg/injection, schedule: Q01DX009 (ip), vehicle: water) was 106 % of control.

`CC(/C=C/c1ccccc1)=N\NC(=O)c1ccc(O)cc1` was tested, and the T/C [3] was 101 % of control, the T/C [4] was 97 % of control and the T/C [5] was 93 % of control.

`CCC1OCN2CCCCC12` (stereo unspecified) was tested, and the T/C (dose: 12.5 mg/kg/injection, schedule: Q01DX005 (ip), vehicle: saline) was 100 % of control and 105 % of control, the T/C (dose: 25.0 mg/kg/injection, schedule: Q01DX005 (ip), vehicle: saline) was 107 % of control and 108 % of control and the T/C (dose: 50.0 mg/kg/injection, schedule: Q01DX005 (ip), vehicle: saline) was 105 % of control and 107 % of control and 108 % of control. The T/C (dose: 100.0 mg/kg/injection, schedule: Q01DX005 (ip), vehicle: saline) was 108 % of control and 110 % of control.

`OC1N2CCSC2=NC1(c1ccccc1)c1ccccc1` (stereo unspecified) was tested, and the T/C (dose: 18.75 mg/kg/injection, schedule: Q04DX003 (ip), vehicle: Klucel (hydroxypropylcellulose) (HPC)) was 107 % of control, the T/C (dose: 37.5 mg/kg/injection, schedule: Q04DX003 (ip), vehicle: Klucel (hydroxypropylcellulose) (HPC)) was 95 % of control and the T/C (dose: 75.0 mg/kg/injection, schedule: Q04DX003 (ip), vehicle: Klucel (hydroxypropylcellulose) (HPC)) was 100 % of control. The T/C (dose: 150.0 mg/kg/injection, schedule: Q04DX003 (ip), vehicle: Klucel (hydroxypropylcellulose) (HPC)) was 110 % of control and the T/C (dose: 300.0 mg/kg/injection, schedule: Q04DX003 (ip), vehicle: Klucel (hydroxypropylcellulose) (HPC)) was 93 % of control.

For `O=c1[nH][nH]c(O)c1-c1ccc(-c2c(O)[nH][nH]c2=O)cc1`, the T/C [3] was 105 % of control, the T/C [4] was 105 % of control and the T/C [5] was 101 % of control.

With `C=Cn1c([N+](=O)[O-])cnc1/C=C/c1ccc(C(=O)O)cc1` the T/C (dose: 50.0 mg/kg/injection, schedule: Q01DX009 (ip), vehicle: Klucel (hydroxypropylcellulose) (HPC)) was 92 % of control and 97 % of control, the T/C [1] was 89 % of control and 90 % of control and the T/C [2] was 95 % of control.

With `CNC(C)C(O)c1ccc(O)cc1` (stereo unspecified) the T/C (dose: 50.0 mg/kg/injection, schedule: Q01DX009 (ip), vehicle: saline) was 102 % of control and 92 % of control, the T/C (dose: 100.0 mg/kg/injection, schedule: Q01DX009 (ip), vehicle: saline) was 102 % of control and 105 % of control and the T/C (dose: 200.0 mg/kg/injection, schedule: Q01DX009 (ip), vehicle: saline) was 102 % of control and 108 % of control. For the same compound, the T/C (dose: 400.0 mg/kg/injection, schedule: Q01DX009 (ip), vehicle: saline) was 102 % of control and 98 % of control.

In the case of `Cc1c2cc[n+](C)c(C)c2cc2c1[nH]c1ccc(O)cc12`, the T/C (dose: 10.0 mg/kg/injection, schedule: Q04DX002 (ip), vehicle: water) is reported as 157 % of control, the T/C (dose: 20.0 mg/kg/injection, schedule: Q04DX002 (ip), vehicle: water) is reported as 162 % of control and the T/C (dose: 40.0 mg/kg/injection, schedule: Q04DX002 (ip), vehicle: water) is reported as 89 % of control. For the same compound, the T/C (dose: 50.0 mg/kg/injection, schedule: Q04DX002 (ip), vehicle: water) was 88 % of control.

For `Cc1ccc(S(=O)(=O)OC[C@@H]2CCCC[C@H]2COS(=O)(=O)c2ccc(C)cc2)cc1`, the T/C [1] was 98 % of control, the T/C [2] was 98 % of control and the T/C (dose: 400.0 mg/kg/injection, schedule: Q01DX009 (ip), vehicle: Klucel (hydroxypropylcellulose) (HPC)) was 98 % of control.
